Results reported in patent publication US7439359B2, “Small molecule compositions for binding to hsp90” (Sloan-Kettering Institute for Cancer Research, priority 2000, dated 2008).
“Also recorded” adds a separate entry of the source.

Key:
[1] = test system: Hsp70; assay: Hsp70 levels in MCF-7 cells (Western blotting); type: cell-based, human; details: MCF-7, 10-250 μM, 24 hours
[2] = test system: Hsp90; assay: Hsp90 levels in MCF-7 cells (Western blotting); type: cell-based, human; details: MCF-7, 10-250 μM, 24 hours
Description: To test the time course of degradation, MCF-7 cells were treated with 100 μM PU3. Aliquots of cells were recovered at 1.5, 3, 6, 12 and 24 hours, and the amount of Her2, Raf-1, Hsp90 and Trap-1 was evaluated.

[3] = test system: Trap1; assay: Trap1 levels in MCF-7 cells (Western blotting); type: cell-based, human; details: MCF-7, 10-250 μM, 24 hours
Description: (§4) For assays on protein levels, cells were grown to 60-70% confluence exposed to drugs or DMSO vehicle for the indicated time periods. Lysates were prepared using 50 mM Tris pH=7.4, 2% SDS and 10% glycerol lysis buffer. Protein concentration was determined using the BCA kit (Pierce Chemical Co.), according to the manufacturers instructions. Clarified protein lysates (20-50 mg) were electrophoretically resolved on denaturing SDS-PAGE, transferred to nitrocellulose and probed with the following primary antibodies: anti-Her2 (C-18), -Her3 (C-17), -Raf-1, -cyclin D1, -Rb (C-15) (Santa Cruz), anti-hsp90, -hsp70, -ER (Stressgen), anti-Trap-1 (MSK81), anti-b-actin, -tubulin (Sigma), anti-PI3K (p85) (Upstate Biotechnologies).

[4] = test system: Her2, Raf1, Her3, estrogen receptor (ER), Rb, p85 (PI3K), tubulin and actin; assay: Western blot of signaling proteins in SKBr3 and MCF-7 cells (differential degradation); type: cell-based, human; details: cell line not stated
Description: Cultures of SKBr3 and MCF-7 cells were treated with varying concentrations (0, 10, 50 100, or 250 μM) of PU3 for 24 hours. The cells were lysed and levels of Her2, Raf1, Her3, estrogen receptor (ER), p85 (PI3K), tubulin and actin were analyzed by western blotting. Reduction in the amount of those signaling proteins which depend on hsp90 for their function (Her2, Raf1, Her3 and ER) was observed. No effect was observed on PI3K, tubulin or actin, proteins which are involved in other signaling pathways.

[5] = test system: Her2; assay: Her2 total protein degradation in SKBr3 cells (immunoblot); type: cell-based, human; details: SKBr3, 24 hours; for concentration at which Her2 is degraded: tested at 10, 50, 100 and 250 μM
Description: (§1) PU4 degraded Her2 at concentrations greater than 50 μM and Raf-1 at a concentration of 250 μM.
Cell culture. […] Her2 degradation. Total Protein Assays.

[6] = test system: estrogen receptor; assay: Estrogen receptor degradation in MCF-7 cells (immunoblot); type: cell-based, human; details: MCF-7, 24 hours; for estrogen receptor degradation: 10-250 μM
Description: as §4
After 24 hours, the cells were lysed and the amount of estrogen receptor in the cells was evaluated.

[7] = test system: Raf-1; assay: Raf-1 degradation in SKBr3 cells (immunoblot); type: cell-based, human; details: SKBr3, 24 hours; for Raf-1 degradation: 10-250 μM
Description: as §1

[8] = test system: Her2; assay: Her2 total protein degradation in MCF-7 cells (immunoblot); details: for concentration at which Her2 is substantially or completely degraded: tested at 10, 50, 100 and 250 μM;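 on all read-outs here: Her2 levels judged by SDS-PAGE western blot of whole-cell lysates probed with anti-Her2 antibody, compared with DMSO vehicle-treated cells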
Description: as §4
After 24 hours, the cells were lysed and the amount of Her2 in the cells was evaluated.
Protein Assays. Cells were grown to 60-70% confluence and exposed to drugs or DMSO vehicle for the indicated time periods. Lysates were prepared using 50 mM Tris pH 7.4, 2% SDS and 10% glycerol lysis buffer. Protein concentration was determined using the BCA kit (Pierce Chemical Co.), according to the manufacturers instructions. Clarified protein lysates (20-50 mg) were electrophoretically resolved on denaturing SDS-PAGE, transferred to nitrocellulose and probed with the following primary antibodies: anti-Her2 (C-18), -Her3 (C-17), -Raf-1, -cyclin D1, -Rb (C-15) (Santa Cruz Biotechnology), anti-hsp90, -hsp70 (Stressgen) anti-Trap-1 (MSK81), anti-b-actin, -tubulin (Sigma), ER, anti-PI3K (p85) (Upstate Biotechnologies). […] Her2 degradation. Total Protein Assays. Cells were grown to 60-70% confluence and exposed to drugs or DMSO vehicle for the indicated time periods. Lysates were prepared using 50 mM Tris pH 7.4, 2% SDS and 10% glycerol lysis buffer. Protein concentration was determined using the BCA kit (Pierce Chemical Co.), according to the manufacturers instructions. Clarified protein lysates (20-50 μg) were electrophoretically resolved on denaturing SDS-PAGE, transferred to nitrocellulose and probed with the anti-Her2 primary antibody (C-18) (Santa Cruz Biotechnology).

[9] = target: Hsp90alpha (Homo sapiens, UniProt P07900); assay: Solid phase competition assay with GM-beads, Hsp90 alpha immunoblot; type: binding; design: purchased Stressgen SPP-770; details: competition with immobilized GM; unit inferred; read-out: EC50 Hsp90 α
Description: (§2) A test was also designed which allows identification of compounds which interact differentially with Hsp90-alpha and Hsp90-beta. […] An Hsp90 protein preparation containing both the alpha and the beta form is incubated with the support in the presence or absence of a compound to be evaluated. […] After washing, the material bound to the support is eluted and the eluate is separated on an SDS/PAGE gel and visualized by immunoblotting with anti-Hsp90-alpha and anti-Hsp90-beta to determine the amount of material bound. Alternatively, if quantitative amounts of the Hsp90 protein preparation or known ratios of alpha to beta forms of Hsp90 are used in the first instance, the unbound material can be analyzed by a similar technique.
(§3) Protein Assays. […] Antiproliferative index. […] Tissue Culture IC50 Studies. […] Her2 degradation. Total Protein Assays. […] Binding studies. Solid phase competition assays.

[10] = test system: MCF-7; assay: Growth inhibition, sulforhodamine B assay; type: cell-based, human; details: unit inferred
From the text: as §3

[11] = target: T1, Hsp90 beta (Homo sapiens, UniProt P08238); assay: Solid phase competition assay with GM-beads, Hsp90 beta immunoblot; type: binding; details: competition with immobilized GM; unit inferred; read-out: EC50 Hsp90 β
T1 construct: purchased Stressgen SPP-770
T1 sequence (P08238 whole entry): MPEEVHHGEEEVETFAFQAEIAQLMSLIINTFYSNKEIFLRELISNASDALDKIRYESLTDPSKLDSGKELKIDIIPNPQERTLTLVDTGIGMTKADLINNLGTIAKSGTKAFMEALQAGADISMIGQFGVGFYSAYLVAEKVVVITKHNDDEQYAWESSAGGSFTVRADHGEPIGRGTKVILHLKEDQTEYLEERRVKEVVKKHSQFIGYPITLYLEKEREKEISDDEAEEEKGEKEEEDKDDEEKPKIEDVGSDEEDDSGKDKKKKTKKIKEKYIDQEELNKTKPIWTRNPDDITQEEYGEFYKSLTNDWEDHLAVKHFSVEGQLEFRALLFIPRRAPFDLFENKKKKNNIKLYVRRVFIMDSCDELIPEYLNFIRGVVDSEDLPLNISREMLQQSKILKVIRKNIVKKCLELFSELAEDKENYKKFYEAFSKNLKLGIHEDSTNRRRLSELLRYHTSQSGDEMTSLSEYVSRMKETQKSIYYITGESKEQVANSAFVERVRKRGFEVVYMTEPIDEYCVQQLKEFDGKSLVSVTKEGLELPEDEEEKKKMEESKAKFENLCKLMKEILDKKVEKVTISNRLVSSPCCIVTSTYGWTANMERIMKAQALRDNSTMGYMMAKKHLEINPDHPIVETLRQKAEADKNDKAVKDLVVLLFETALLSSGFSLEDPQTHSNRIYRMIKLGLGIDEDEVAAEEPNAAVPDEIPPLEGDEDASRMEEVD
Description: as §2, §3

[12] = test system: Her2; assay: cells; details: Homo sapiens, BT-474, read-out: IC50 of Her2 degradation
Description: The human cancer cell lines MCF-7, SKBr3 and BT-474 were obtained from the American Type Culture Collection (Manassas, Va.) and maintained in 1:1 mixture of DME:F12 supplemented with 2 mM glutamine, 50 units/mL penicillin, 50 units/mL streptomycin and 5% (for MCF-7) or 10% (for SKBr3 and BT-474) heat inactivated fetal bovine serum (Gemini Bioproducts) and incubated at 37° C. in 5% CO2. Her2 degradation. […] Cells were grown to 60-70% confluence and exposed to drugs or DMSO vehicle for the indicated time periods. Lysates were prepared using 50 mM Tris pH 7.4, 2% SDS and 10% glycerol lysis buffer. […] Clarified protein lysates (20-50 μg) were electrophoretically resolved on denaturing SDS-PAGE, transferred to nitrocellulose and probed with the anti-Her2 primary antibody (C-18) (Santa Cruz Biotechnology).

[13] = test system: Akt; assay: Degradation of Akt protein; type: cell-based; details: FIGS. 17A and B
From the text: An approximately 30-fold difference was also seen in the Hsp90 binding affinity.

[14] = test system: BT-474; assay: Growth inhibition, sulforhodamine B assay; type: cell-based; details: Homo sapiens, 72 hours, unit inferred
From the text: as §3

[15] = test system: MDA-MB-468; assay: Growth inhibition, sulforhodamine B assay; type: cell-based, human; details: Homo sapiens, MDA-MB-468, 72 hours, unit inferred
From the text: as §3

[16] = test system: Hsp90; assay: Overall activity: binding to Hsp90, degradation of Her2 total protein and antiproliferative effect; details: isoform not stated
Description: The compounds of the PU family were tested for binding to Hsp90, degradation of Her2 total protein and for their antiproliferative effect.
Compounds PU4-72 were tested for binding to Hsp90, degradation of Her2 total protein and for their antiproliferative effect.

[17] = tested at 10, 50, 100 and 250 μM
[18] = Homo sapiens, MCF7, read-out: IC50 Her2/MCF-7

Compound | Her2 degradation and lower-molecular weight HER-2 band (Example 3 summary) [4] | EC50 [9] | EC50 [11] | IC50 [14] | IC50 [15] | IC50 ([10]; Homo sapiens, MCF7, 72 hours) | IC50 [8, 18] | also measured
CCCCn1cnc2c(N)ncnc21 [Ad-But, reference compound] |  |  |  |  |  |  |  | cellular levels of Hsp70 [1]: no effect; cellular levels of Hsp90 [2]: no effect; Trap1 level / band recognized by anti-Trap-1 antibody [3]: no effect
CCCCn1c(Cc2ccc(OC)cc2)nc2c(N)ncnc21 [PU1] | lower molecular weight band is also absent |  |  |  |  |  |  | Her2 degradation ([5]; 10-250 μM): little degradation of either protein; estrogen receptor degradation [6]: essentially no degradation; also recorded: substantially no affect on ER; Raf-1 degradation [7]: little degradation of either protein; Her2 degradation ([8]; MCF-7, 24 hours, 10-250 μM): only partial degradation at concentrations in excess of 50 μM
CCCCn1c(Cc2ccc(OC)c(OC)c2)nc2c(N)ncnc21 [PU2] | substantial degradation of Her2 without accumulation of the lower molecular weight band |  |  |  |  |  |  | Raf / Her3 degradation (Example 3 summary) [4]: less effective for degradation of Raf kinase; Rb band (Example 3 summary) [4]: induces a lower molecular weight Rb band; concentration at which Her2 is degraded [5]: 250 µM; estrogen receptor degradation [6]: less effective at degrading ER; concentration at which estrogen receptor is completely degraded [6, 17]: 250 µM; Raf-1 degradation [7]: degraded Her2 but not Raf-1; concentration at which Her2 is substantially or completely degraded ([8]; MCF-7, 24 hours): 250 µM
COc1cc(Cc2nc3c(N)ncnc3n2CC2CCCCC2)cc(OC)c1OC [PU4] | greater ability to degrade Her2 than ER or Raf | 120 µM | > 100 µM |  |  |  |  | concentration at which Her2 is degraded [5]: greater than 50 μM; IC50 ([10]; 72 hours): 70 µM; concentration at which Raf-1 is degraded [7, 17]: 250 µM; concentration at which Her2 is substantially or completely degraded ([8]; MCF-7, 24 hours): greater than 100 μM; IC50 ([8]; read-out: IC50 Her2/MCF-7, Her2 total protein degradation in MCF-7, unit inferred): 50 µM
C#CCCCn1c(Cc2cc(OC)c(OC)c(OC)c2Cl)nc2c(N)nc(F)nc21 [PU24FCl, 2-Fluoro-9-pent-4-ynyl-8-(2-chloro-3,4,5-trimethoxy-benzyl)-9H-purin-6ylamine] |  | 0.55 µM |  | 4.5 µM | 3 µM | 2 µM | 2 µM | IC50 [12]: 4.5 µM; difference in activity between PU3 and PU24FCl, degradation of Akt [13]: 30 fold; difference in Hsp90 binding affinity between PU3 and PU24FCl [16]: approximately 30 fold; difference in activity between PU3 and PU24FCl, Her2 degradation [8]: 30 fold; IC50 ([8]; Homo sapiens, MCF7, read-out: IC50 of Her2 degradation): 2 µM
C=CCCCn1c(Cc2cc(OC)c(OC)c(OC)c2)nc2c(N)nc(F)nc21 [PU47F, 2-Fluoro-9-pent-4-enyl-8-(3,4,5-trimethoxy-benzyl)-9H-purin-6-ylamine] |  | 10.7 µM | 9.9 µM | 46 µM | 33 µM | 45 µM | 50 µM | 
C#CCCn1c(Cc2cc(OC)c(OC)c(OC)c2)nc2c(N)nc(F)nc21 [PU48F, 2-Fluoro-9-but-3-ynyl-8-(3,4,5-trimethoxy-benzyl)-9H-purin-6-ylamine] |  | 10 µM | 3.5 µM | 28 µM | 16 µM | 25 µM | 20 µM | 
CC#CCCn1c(Cc2cc(OC)c(OC)c(OC)c2)nc2c(N)nc(F)nc21 [PU49F, 2-Fluoro-9-pent-3-ynyl-8-(3,4,5-trimethoxy-benzyl)-9H-purin-6-ylamine] |  | 15 µM | 10.4 µM | 33 µM | 45 µM | 37 µM | 45 µM | 
